Laboratory results: patent US12139492B2 (Endotarget Inc., priority 2021, dated 2024)
Like-named read-outs stand apart in the source and are kept apart here.

What was measured:
[1] = test system: primary human CLL cell CTG-3754; assay: Ex vivo cell inhibition, Cell Titer Glo viability, primary CLL cell CTG-3754; assay type: cell-based; settings: 10 nM to 50 μM, 6 days
Protocol: (§1) Primary human Human Chronic Lymphocytic Leukemia cell lines were used to measure ex vivo cell inhibition by exemplary compounds. The cells were incubated with test compounds at a dose range of 10 nM to 50 μM for 6 days. Cell Titer Glo data were gathered for cell viability evaluation.

[2] = test system: primary human CLL cell CTG-3763; assay: Ex vivo cell inhibition, Cell Titer Glo viability, primary CLL cell CTG-3763; assay type: cell-based; settings: 10 nM to 50 μM, 6 days
Protocol: as §1

[3] = test system: JeKo-1 cells; assay: Antiproliferative effect, MTS cell viability assay, JeKo-1 cells; assay type: cell-based; settings: JeKo-1 mantle cell lymphoma cells, read-out: IC50 (anti-proliferation) JeKO-1 cells
Method in brief: (§2)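 Absorbance at 490 nm of formazan, formed by metabolically active cells from MTS tetrazolium, served as the viability measure after a 72 h treatment across a 0.001–10 μM concentration series plus untreated control.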

[4] = molecular target: T1, BTK (Homo sapiens, UniProt Q06187); assay: BTK degradation, DC50 and Dmax of Table 1 (cell line not given); assay type: cell-based; set-up: endogenous in cells; settings: for DC50: concentration giving 50% reduction of BTK expression level
T1 sequence (Q06187 whole entry): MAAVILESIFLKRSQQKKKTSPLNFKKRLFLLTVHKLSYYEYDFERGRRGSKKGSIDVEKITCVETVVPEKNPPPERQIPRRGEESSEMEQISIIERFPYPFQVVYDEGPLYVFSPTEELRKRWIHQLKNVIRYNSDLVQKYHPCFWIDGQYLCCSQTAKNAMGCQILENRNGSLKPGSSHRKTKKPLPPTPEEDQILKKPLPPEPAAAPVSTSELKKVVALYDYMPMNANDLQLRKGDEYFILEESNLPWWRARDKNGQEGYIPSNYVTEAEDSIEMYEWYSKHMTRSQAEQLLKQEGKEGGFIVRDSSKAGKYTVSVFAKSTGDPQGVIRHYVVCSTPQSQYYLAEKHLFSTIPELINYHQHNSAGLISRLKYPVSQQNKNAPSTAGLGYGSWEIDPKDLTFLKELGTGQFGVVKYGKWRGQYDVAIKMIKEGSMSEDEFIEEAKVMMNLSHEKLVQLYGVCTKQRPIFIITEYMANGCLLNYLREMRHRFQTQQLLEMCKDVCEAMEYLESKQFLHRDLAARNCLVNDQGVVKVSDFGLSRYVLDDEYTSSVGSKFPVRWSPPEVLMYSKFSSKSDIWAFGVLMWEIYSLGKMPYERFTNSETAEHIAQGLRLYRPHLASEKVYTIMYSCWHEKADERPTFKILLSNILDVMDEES

[5] = test system: Mino cells; assay: Antiproliferative effect, MTS cell viability assay, Mino cells; assay type: cell-based; settings: Mino mantle cell lymphoma cells, read-out: IC50 (anti-proliferation) Mino cells
Method in brief: as §2

[6] = molecular target: T1, BTK; assay: Degradation of BTK protein in Namalwa cells (Western blot; DC50, Dmax); settings: for degradation of BTK protein: various concentrations, 24 hours; for DC50: cell line not given
[7] = molecular target: T1, BTK; assay: Degradation of BTK protein in JeKo-1 cells (Western blot; DC50, Dmax); settings: JeKo-1 mantle cell lymphoma cells, various concentrations, 24 hours
Protocol: (§3) Namalwa, JeKo-1, or Mino cells were plated in 24-well plates at a density of 10^5 cells/well. Media containing various drug concentrations were added on the day following plating (day 0) and allowed to incubate for 24 hours for Western blot. Media with the tested compound was changed every other day. […] Media were removed and dishes were washed with 1×DPBS. Lysates were made by adding 150 μL of complete lysis solution and scraping cells into a 1.5 mL microcentrifuge tube. Lysates were placed on a rotisserie at 4° C. for 30 min and then spun at 4° C. at 12000 rcf for 10 min. Supernatants were assayed for protein content, snap-frozen, and stored a −80° C. if not run immediately. Then 50 μg of protein was subjected to Western blot protocol. […] They were then imaged on a LICOR infrared scanner.

[8] = molecular target: T1, BTK; assay: Degradation of BTK protein in Mino cells (Western blot; DC50, Dmax); settings: Mino mantle cell lymphoma cells, various concentrations, 24 hours
Protocol: as §3

[9] = Namalwa B lymphocyte cells, Western blot
[10] = read-out: DC50 (BTK degradation), concentration giving 50% reduction of BTK expression level
[11] = read-out: Dmax (BTK degradation)

Structure (SMILES) | Dmax [4] [%] | DC50 [4] [nM] | degradation of BTK protein [6, 9] | degradation of BTK protein [7] | degradation of BTK protein [8] | degradation of BTK protein at 10^−6 M ([6]; Namalwa B lymphocyte cells, 10^−6 M, Western blot) | Dmax [6] [%] | DC50 ([6]; BTK degradation) [nM] | DC50 [6, 10] [nM] | Dmax [6, 11] [%] | effect on primary human CLL cell viability [1] | effect on primary human CLL cell viability [2] | IC50 ([3]; Homo sapiens) [nM] | IC50 ([5]; Homo sapiens, MINO) [nM] | IC50 ([5]; Homo sapiens) [nM] | IC50 [3] [nM] | IC50 [5] [nM]
Nc1ncnc2c1c(-c1ccc(Oc3ccccc3)cc1)nn2C1CCN(CCOCCOCCN2CCN(c3ccc4c(c3)C(=O)N(C3CCC(=O)NC3=O)C4=O)CC2)CC1 (centres unmarked) [Compound 1] | > 90 | 10 to 50 | dose-dependent degradation |  |  |  |  |  |  |  | dose-dependent effect | dose-dependent effect | 1000 to 10000 | 1000 to 10000 |  |  | 
Nc1ncnc2c1c(-c1ccc(Oc3ccccc3)cc1)nn2[C@@H]1CCCN(CC2CCN(C(=O)N3CCC(N4CCN(c5ccc6c(c5)CN(C5CCC(=O)NC5=O)C6=O)CC4)CC3)CC2)C1 (stereo partly drawn) [Compound 28, 3-(5-(4-(1-(4-(((R)-3-(4-amino-3-(4-phenoxyphenyl)-1H-pyrazolo(3,4-d)pyrimidin-1-yl)piperidin-1-yl)methyl)piperidine-1-carbonyl)piperidin-4-yl)piperazin-1-yl)-1-oxoisoindolin-2-yl)piperidine-2,6-dione] | > 90 | 10 to 50 | dose-dependent degradation | dose-dependent degradation | dose-dependent degradation |  |  |  |  |  |  |  | 1000 to 10000 |  | < 1000 |  | 
Nc1ncnc2c1c(-c1ccc(Oc3ccccc3)cc1)nn2[C@@H]1CCCN(C2CCN(C(=O)N3CCC(N4CCN(c5ccc6c(c5)CN(C5CCC(=O)NC5=O)C6=O)CC4)CC3)CC2)C1 (stereo partly drawn) [Compound 162, 3-(5-(4-(1-((R)-3-(4-amino-3-(4-phenoxyphenyl)-1H-pyrazolo(3,4-d)pyrimidin-1-yl)-(1,4′-bipiperidine)-1′-carbonyl)piperidin-4-yl)piperazin-1-yl)-1-oxoisoindolin-2-yl)piperidine-2,6-dione] | > 90 | < 10 | dose-dependent degradation | dose-dependent degradation | dose-dependent degradation |  |  |  |  |  |  |  | < 1000 |  | < 1000 |  | 
Nc1ncnc2c1c(-c1ccc(Oc3ccccc3)cc1)nn2C1CCN(CCOCCOCCN2CCC(c3ccc4c(c3)CN(C3CCC(=O)NC3=O)C4=O)CC2)CC1 (centres unmarked) [Compound 419, 3-(5-(1-(2-(2-(2-(4-(4-amino-3-(4-phenoxyphenyl)-1H-pyrazolo[3,4-d]pyrimidin-1-yl)piperidin-1-yl)ethoxy)ethoxy)ethyl)piperidin-4-yl)-1-oxoisoindolin-2-yl)piperidine-2,6-dione] |  |  | dose-dependent degradation | dose-dependent degradation | dose-dependent degradation |  |  |  | < 10 | > 90 |  |  |  |  |  | 1000 to 10000 | 1000 to 10000
Nc1ncnc2c1c(-c1ccc(Oc3ccccc3)cc1)nn2C1CCN(CC2CN(CC3CCN(c4ccc5c(c4)C(=O)N(C4CCC(=O)NC4=O)C5=O)CC3)C2)CC1 (centres unmarked) [Compound 439, 5-(4-((3-((4-(4-amino-3-(4-phenoxyphenyl)-1H-pyrazolo(3,4-d)pyrimidin-1-yl)piperidin-1-yl)methyl)azetidin-1-yl)methyl)piperidin-1-yl)-2-(2,6-dioxopiperidin-3-yl)isoindoline-1,3-dione] |  |  | dose-dependent degradation | dose-dependent degradation | dose-dependent degradation |  |  |  | < 10 | > 90 |  |  | 1000 to 10000 | < 1000 |  |  | 

More lines, main results first:

Dmax [4] [%] | DC50 [4] [nM] | degradation of BTK protein [6, 9] | degradation of BTK protein [7] | degradation of BTK protein [8] | degradation of BTK protein at 10^−6 M ([6]; Namalwa B lymphocyte cells, 10^−6 M, Western blot) | Dmax [6] [%] | DC50 ([6]; BTK degradation) [nM] | DC50 [6, 10] [nM] | Dmax [6, 11] [%] | Structure (SMILES) | effect on primary human CLL cell viability [1] | effect on primary human CLL cell viability [2] | IC50 ([3]; Homo sapiens) [nM] | IC50 ([5]; Homo sapiens, MINO) [nM] | IC50 ([5]; Homo sapiens) [nM] | IC50 [3] [nM] | IC50 [5] [nM]
> 90 | < 10 | dose-dependent degradation | dose-dependent degradation | dose-dependent degradation | degradation |  |  |  |  | Nc1ncnc2c1c(-c1ccc(Oc3ccccc3)cc1)nn2[C@@H]1CCCN(CC2CCN(C(=O)N3CCC(N4CCN(c5ccc6c(c5)C(=O)N(C5CCC(=O)NC5=O)C6=O)CC4)CC3)CC2)C1 (stereo partly drawn) [Compound 27, 5-(4-(1-(4-(((R)-3-(4-amino-3-(4-phenoxyphenyl)-1H-pyrazolo(3,4-d)pyrimidin-1-yl)piperidin-1-yl)methyl)piperidine-1-carbonyl)piperidin-4-yl)piperazin-1-yl)-2-(2,6-dioxopiperidin-3-yl)isoindoline-1,3-dione] |  |  | < 1000 | 1000 to 10000 |  |  | 
> 90 | < 10 | dose-dependent degradation | dose-dependent degradation | dose-dependent degradation |  |  |  |  |  | Nc1ncnc2c1c(-c1ccc(Oc3ccccc3)cc1)nn2[C@@H]1CCCN(C(=O)N2CCC(N3CCN(c4ccc5c(c4)CN(C4CCC(=O)NC4=O)C5=O)CC3)CC2)C1 (stereo partly drawn) [Compound 52, 3-(5-(4-(1-((R)-3-(4-amino-3-(4-phenoxyphenyl)-1H-pyrazolo(3,4-d)pyrimidin-1-yl)piperidine-1-carbonyl)piperidin-4-yl)piperazin-1-yl)-1-oxoisoindolin-2-yl)piperidine-2,6-dione] |  |  | < 1000 | < 1000 |  |  | 
 |  | dose-dependent degradation | dose-dependent degradation | dose-dependent degradation |  | > 90 | < 10 |  |  | Nc1ncnc2c1c(-c1ccc(Oc3ccccc3)cc1)nn2C1CCN(C2CCN(CC3CCN(c4ccc5c(c4)C(=O)N(C4CCC(=O)NC4=O)C5=O)CC3)CC2)CC1 (centres unmarked) [Compound 213, 5-(4-((4-(4-amino-3-(4-phenoxyphenyl)-1H-pyrazolo(3,4-d)pyrimidin-1-yl)-(1,4′-bipiperidin)-1′-yl)methyl)piperidin-1-yl)-2-(2,6-dioxopiperidin-3-yl)isoindoline-1,3-dione] |  |  | < 1000 | < 1000 |  |  | 
 |  | dose-dependent degradation | dose-dependent degradation | dose-dependent degradation |  |  |  | < 10 | > 90 | Nc1ncnc2c1c(-c1ccc(Oc3ccccc3)cc1)nn2C1CCN(CC2CCN(/C=C/C(=O)CN3CCN(c4ccc5c(c4)CN(C4CCC(=O)NC4=O)C5=O)CC3)CC2)CC1 (centres unmarked) [Compound 420, (E)-3-(5-(4-(4-(4-((4-(4-amino-3-(4-phenoxyphenyl)-1H-pyrazolo[3,4-d]pyrimidin-1-yl)piperidin-1-yl)methyl)piperidin-1-yl)-2-oxobut-3-en-1-yl)piperazin-1-yl)-1-oxoisoindolin-2-yl)piperidine-2,6-dione] |  |  | 1000 to 10000 | 1000 to 10000 |  |  | 
 |  |  |  | dose-dependent degradation |  |  |  | < 10 | > 90 | Nc1ncnc2c1c(-c1ccc(Oc3ccccc3)cc1)nn2C1CCN(C(=O)N2CC(N3CCN(c4ccc5c(c4)C(=O)N(C4CCC(=O)NC4=O)C5=O)CC3)C2)CC1 (centres unmarked) [Compound 477, 5-(4-(1-(4-(4-amino-3-(4-phenoxyphenyl)-1H-pyrazolo[3,4-d]pyrimidin-1-yl)piperidine-1-carbonyl)azetidin-3-yl)piperazin-1-yl)-2-(2,6-dioxopiperidin-3-yl)isoindoline-1,3-dione] |  |  | < 1000 | < 1000 |  |  | 
 |  | dose-dependent degradation |  | dose-dependent degradation |  |  |  | < 10 | > 90 | Nc1ncnc2c1c(-c1ccc(Oc3ccccc3)cc1)nn2C1CCN(C(=O)N2CC(N3CCN(c4ccc5c(c4)CN(C4CCC(=O)NC4=O)C5=O)CC3)C2)CC1 (centres unmarked) [Compound 478, 3-(5-(4-(1-(4-(4-amino-3-(4-phenoxyphenyl)-1H-pyrazolo[3,4-d]pyrimidin-1-yl)piperidine-1-carbonyl)azetidin-3-yl)piperazin-1-yl)-1-oxoisoindolin-2-yl)piperidine-2,6-dione] |  |  | < 1000 | < 1000 |  |  | 
 |  |  |  | dose-dependent degradation |  |  |  | < 10 | > 90 | Nc1ncnc2c1c(-c1ccc(Oc3ccccc3)cc1)nn2C1CCN(C(=O)N2CC(N3CCN(c4ccc5c(c4)CN([C@H]4CCC(=O)NC4=O)C5=O)CC3)C2)CC1 [Compound 484, (S)-3-(5-(4-(1-(4-(4-amino-3-(4-phenoxyphenyl)-1H-pyrazolo[3,4-d]pyrimidin-1-yl)piperidine-1-carbonyl)azetidin-3-yl)piperazin-1-yl)-1-oxoisoindolin-2-yl)piperidine-2,6-dione] |  |  | < 1000 | < 1000 |  |  | 
